According to patent US20250000834A1, “COMPOSITIONS AND METHODS FOR TARGETING GPCR FOR THE PREVENTION AND TREATMENT OF PAIN” (Duke University, priority 2021, published 2025):

Tests used:
[1] = target: T1, hGPR37L1 (Homo sapiens, UniProt O60883); experiment: Beta-arrestin assay (PathHunter hGPR37L1 CHO-K1); type: cell-based; details: hGPR37L1 ChoK1 cells
T1 sequence (O60883 26-481): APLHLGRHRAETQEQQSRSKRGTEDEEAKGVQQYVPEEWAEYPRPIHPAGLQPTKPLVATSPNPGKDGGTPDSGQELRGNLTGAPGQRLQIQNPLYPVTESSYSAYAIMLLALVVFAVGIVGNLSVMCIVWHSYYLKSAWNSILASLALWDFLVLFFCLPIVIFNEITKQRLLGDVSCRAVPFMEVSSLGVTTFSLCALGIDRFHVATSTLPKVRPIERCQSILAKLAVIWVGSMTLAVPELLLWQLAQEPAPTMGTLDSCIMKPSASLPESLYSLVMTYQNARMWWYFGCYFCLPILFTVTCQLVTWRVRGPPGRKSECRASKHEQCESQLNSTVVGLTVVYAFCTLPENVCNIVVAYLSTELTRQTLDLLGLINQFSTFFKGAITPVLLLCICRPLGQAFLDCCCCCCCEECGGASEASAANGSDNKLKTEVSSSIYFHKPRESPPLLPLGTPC
Description: Beta-arrestin assay: To screen for GPR37L1 ligands, the PathHunter® eXpress GPR37L1 CHO-K1 kit was purchased from Eurofins Discoveryone™ (DiscoverX Solutions for Drug Discovery, Fremont, CA; Cat #93-0378E2ACP1M). CHO-K1 cells express human GPR37L1 and were grown in 96-well plates for 48 hours. Lipid compounds were incubated with the ChoK1 cells for 1 hour at 37° C., and GPR37L1 activation was determined by measuring chemiluminescence using the beta-arrestin 2 (β-arrestin) detection kit (DiscoverX Solutions for Drug Discovery, Fremont, CA). The luminescent activity was measured using an Infinite F200 Pro Illuminometer (Tecan Trading AG, Switzerland).
Eight different concentrations of compounds ranging from 0.1 nM to 100 nM were tested.

[2] = test system: STZ-induced mechanical allodynia in mice; experiment: Streptozotocin (STZ)-induced mechanical allodynia, von Frey paw withdrawal threshold; type: in vivo, mouse; details: intrathecal 100 ng
Description: Pain models and drug injection: Animal model of chemotherapy-induced peripheral neuropathy (CIPN) was induced by paclitaxel (Sigma-Aldrich (St. Louis, MO), T7191, diluted with sterile saline). A single injection of paclitaxel ([…]) was given by intraperitoneal injection. A single injection of paclitaxel may induce mechanical allodynia for 4-6 weeks (X. Luo et al., Macrophage Toll-like Receptor 9 Contributes to Chemotherapy-Induced Neuropathic Pain in Male Mice. J Neurosci 39, 6848-6864 (2019)). Animal model of […] neuropathy was induced by streptozotocin (STZ, Sigma-Aldrich (St. Louis, MO), S0130, diluted with sterile saline). A single injection of STZ (75 mg/kg) was given as previously described (N. C. Brigham et al., Controlled release of etoricoxib from poly(ester urea) films for post-operative pain management. J Control Release 329, 316-327 (2021)). For intrathecal (i.t.) injection of MaR1, a spinal cord puncture was made by a Hamilton micro-syringe (Hamilton, Reno, NV) with a 30-gauge needle between the L5 and L6 levels to deliver reagents (5 μl) to the cerebral spinal fluid (J. L. Hylden, G. L. Wilcox, Intrathecal morphine in mice: a new technique. Eur. J Pharmacol. 67, 313-316 (1980)).
Nociceptive behavior tests: Gpr37l1^+/+, Gpr37l1^+/−, or Gpr37l1^−/− mice were habituated to the testing environment for at least two days before the baseline testing. All the animal behaviors were tested blindly. Thermal and mechanical sensitivity was tested before and after the injection of paclitaxel (PTX, 6 mg/kg, IP) and streptozotocin (STZ, 75 mg/kg, IP). MaR1 was intrathecally injected 3 days after the STZ and PTX injection. […] The 50% paw withdrawal threshold was measured by Dixon's up-down method (W. J. Dixon, Efficient analysis of experimental observations. Annu Rev Pharmacol Toxicol 20, 441-462 (1980)). Thermal sensitivity was measured using a Hargreaves radiant heat apparatus (IITC Life Science, Woodland Hills, CA) (K. Hargreaves, et al., A new and sensitive method for measuring thermal nociception in cutaneous hyperalgesia. Pain 32, 77-88 (1988)). […]

[3] = target: T1, hGPR37L1; experiment: Lipid overlay assay with lysates of hGPR37L1-transfected HEK293 cells; type: binding; design: expressed in transfected cells; host or cells: HEK293 Flp-In cells
Description: Lipids overlay assay: Lipids membrane coating and protein overlay assay were performed as previously described (S. Dowler, et al., Protein lipid overlay assay. Sci STKE 2002, p 16 (2002)). […] Compound-coated membranes were dried and blocked with 1% BSA. The coated membranes were incubated with lysates obtained from hGPR37L1-transfected HEK293 cells or mouse DRG lysate from WT or Gpr37l1 KO mice for 2 hours, followed by detection using an anti-GRP37L1 antibody (Bioss (Woburn, MA), Rabbit, 1:1000, #bs-15390R) or anti-flag antibody (Cell Signaling Technology (Danvers, MA), Rabbit, 1:1000, #14793). Blots were further incubated with an HRP-conjugated secondary anti-rabbit antibody (Jackson ImmunoResearch Laboratories (West Grove, PA), raised in donkey, 1:5000), developed in ECL solution (Pierce Biotechnology, Waltham, MA), and the signal was visualized from ChemiDoc XRS (Bio-Rad, Hercules, CA). The signal Intensity was quantified by Image J software (NIH).
A lipid overlay assay was conducted to reveal any possible binding of these lipid mediators to GPR37L1. hGPR37L1 was FLAG-tagged and expressed in HEK293 cells after hGPR37L1 cDNA transfection; the expressed protein detectable by anti-FLAG antibody (schematic not shown; see U.S. Prov. No. 63/270,198, FIG. 3A).

For CC/C=C\C/C=C\C[C@H](O)\C=C/C=C/C=C/[C@H](O)C/C=C\CCC(=O)O [MaR1, Maresin 1], the “potency relative to TX14 in β-arrestin 2 assay” value [1] was 10 times, the β-arrestin signaling ([1]; 0.1 nM to 100 nM, n=6) was 3.64 fold increase and the EC50 ([1]; n=6, read-out: EC50 of β-arrestin response) was 0.97 nM. The “effect on STZ-induced mechanical allodynia” value (“effect” below) ([2]; Gpr37l1+/+ WT mice, 3 days after STZ) was “reversed STZ-induced mechanical allodynia in all the mice”, the “effect” value ([2]; Gpr37l1+/− mice) was “significantly reversed the mechanical allodynia in the majority” and the “effect” value ([2]; Gpr37l1−/− mice) was “no significant effects”. The “binding signal in lipid overlay assay” value ([3]; cell lysate from control mock transfection) was “no positive signal” and the “binding signal in lipid overlay assay” value ([3]; lysate of hGPR37L1 (FLAG) transfected HEK293 cells, anti-FLAG detection) was “specific binding signal”.
